Reference: patent publication EP0001395A2, “Substituted N-phenyl-2,5-pyrrolidinones, method for their preparation and their use as fungicides” (BAYER AG, priority 1977, dated 1979)

What was measured:
Botrytis cinerea = assay: Botrytis test (beans) / protective; assay type: in vivo; details: protective spray on Phaseolus vulgaris, inoculation after 24 h, lesion size rated 3 days after inoculation; compared with Tetramethyl-thiuramidisulfid
Source text: Botrytis-Test (Bohnen) / protektiv
• Lösungsmittel: 4,7 Gewichtsteile Aceton • Dispergiermittel: 0,3 Gewichtsteile Alkyl-arylpolyglykoläther • Wasser: 95,0 Gewichtsteile
Man vermischt die für die gewünschte Wirkstoffkonzentration in der Spritzflüssigkeit nötige Wirkstoffmenge mit der angegebenen Menge des Lösungsmittels und verdünnt das Konzentrat mit der angegebenen Menge Wasser, welches die genannten Zusätze enthält.
Mit der Spritzflüssigkeit bespritzt man Pflanzen von Phaseolus vulgaris im 2-Blattstadium bis zur Tropfnässe. Nach 24 Stunden werden auf jedes Blatt 2 kleine mit Botrytis cinerea bewachsene Agarstückchen aufgelegt. Die inokulierten Pflanzen werden in einer abgedunkelten, feuchten Kammer bei 20°C aufgestellt. 3 Tage nach der Inokulation wird die Größe der Befallsflecken auf den Blättern bonitiert.
Die erhaltenen Boniturwerte werden auf Prozent Befall umgerechnet. 0 % bedeutet keinen Befall, 100 % bedeutet, daß der Befallsfleck vollständig ausgebildet ist.

Pellicularia sasakii = assay: Pellicularia test (rice plants); assay type: in vivo; details: spray on rice plants, infection of leaf sheaths rated after 5 to 8 days; compared with Zinksalz der Athylenbis-dithiocarbamidsäure
Source text: • Lösungsmittel: 11,75 Gewichtsteile Aceton • Dispergiermittel: 0,75 Gewichtsteile Alkyl-arylpolyglykoläther • Wasser: 987,50 Gewichtsteile • andere Zusätze: - Gewichtsteile -
Man vermischt die für die gewünschte Wirkstoffkonzentration in der Spritzflüssigkeit nötige Wirkstoffmenge mit der angegebenen Menge des Lösungsmittels und des Dispergiermittels und verdünnt das Konzentrat mit der angegebenen Menge Wasser.
Mit der Spritzflüssigkeit bespritzt man 30 etwa 2-4 Wochen alte Reispflanzen bis zur Tropfnässe. Die Pflanzen verbleiben bis zum Abtrocknen in einem Gewächshaus bei Temperaturen von 22 bis 24°C und einer relativen Luftfeuchtigkeit von etwa 70 %. Die Pflanzen werden mit einer auf Malzagar gezogenen Kultur von Pellicularia sasakii inokuliert und bei 28 bis 30°C sowie 100 % relativer Luftfeuchtigkeit aufgestellt.
Bei den mit Pellicularia sasakii infizierten Pflanzen wird der Befall nach 5 bis 8 Tagen an den Blattscheiden ebenfalls im Verhältnis zur unbehandelten, aber infizierten Kontrolle bestimmt. Die Auswertung erfolgt in Wertzahlen von 1 bis 9. 1 bedeutet 100%ige Wirkung, 3= gute Wirkung, 5 = mäßige Wirkung und 9 = keine Wirkung.

O=C1CC(C2C=CCC2)C(=O)N1c1cc(Cl)cc(Cl)c1 (centres unmarked) [Beispiel 1, N-(3,5-Dichlorphenyl)-△ ^2-cyclopenten-1-yl-bernsteinsäureimid]
Wirkung (Botrytis cinerea): gute, dem bekannten Tetramethyl-thiuramidisulfid überlegene Wirkung | Wirkung (Pellicularia sasakii): gute, dem bekannten Zinksalz der Athylenbis-dithiocarbamidsäure überlegene Wirkung
